Like-named read-outs stand apart in the source and are kept apart here. Square brackets hold non-standard residues; d marks the D form. Ends that are not written are not given here. Peptide text beside a SMILES is read from it. d(aIle) = CC[C@H](C)[C@@H](N)C(=O)O; aIle = CC[C@@H](C)[C@H](N)C(=O)O
What was measured:
[1] = test system: Pseudomonas aeruginosa Xen41; assay type: cell-based; details: for MIC P. aeruginosa: overnight 37 °C, OD630
Experimental: (§1) Pseudomonas aeruginosa Xen41 and Staphylococcus aureus Xen36 were obtained from Xenogen (Alameda, CA; now Revvity, Waltham, MA, USA) and Revvity, respectively, and stored at −80 °C in 10% glycerol. P. aeruginosa were cultured in Luria-Bertani broth while S. aureus were cultured in Todd-Hewitt Broth (Difco, Franklin Lakes, NJ, USA) overnight at 37 °C and shaking at 200 rpm. Cultures typically reached an optical density at 600 nm of 1.7 for P. aeruginosa and 1.3 for S. aureus.
(§2) MIC assays were performed as previously described. Briefly, overnight cultures of P. aeruginosa Xen41 were diluted to 10^5 CFU/mL in Mueller-Hinton Broth (Difco) while S. aureus Xen36 were similarly diluted in Todd-Hewitt Broth. Bacteria (100 µL) were added to 20 µL of 2-fold peptide dilutions in 10% PBS in 96-well polypropylene culture plates. The plates were incubated overnight at 37 °C with gentle rocking and then the optical density at 630 nm (OD630) was recorded in a BioTek Synergy HT plate reader (BioTek, Winooski, VT, USA; now Agilent, Santa Clara, CA, USA). Bioluminescence was recorded for quality control of the bioluminescent bacteria.

[2] = test system: Staphylococcus aureus Xen36; assay type: cell-based; details: for MIC S. aureus: overnight 37 °C, OD630; for Antibacterial activity against S. aureus compared with unmodified peptide (in words): MIC assay
Experimental: as §1, §2

P. aeruginosa [3] = assay: Heat stability (MIC assay after heating); assay type: physicochemical, Pseudomonas aeruginosa; details: 1 mg/mL in 10% PBS, 80 °C for 60 min vs room temperature; read-out MIC assay against P. aeruginosa; duplicates, N = 2, repeated with similar results
Experimental: Peptides were diluted to 1 mg/mL in sterile 10% PBS (1 part PBS, 9 parts dH2O) and heated for 60 min in a 0.5 mL microcentrifuge tube in a water bath set at 80 °C. Control samples were similarly incubated at room temperature. The samples were used for MIC assays, as described below.
as §2
Figure 1 Heat stability of GL13K peptides. LGL13K (circles) or DGL13K (boxes) were incubated for 1 h at room temperature (open symbols) or 80 °C (closed symbols) and then used for an MIC assay against P. aeruginosa. Duplicate samples were tested and plotted as mean ± range, N = 2. The experiment was repeated with similar results.

human red blood cells = details: cited from earlier work
From the text: The selective activity of many AMPs exploits the compositional differences between prokaryotic and eukaryotic membranes to avoid mammalian cell toxicity. The selectivity of AMPs is typically determined as the ratio between the hemolytic concentration and the MIC of the AMP (therapeutic index). One measure of the hemolytic activity is the peptide concentration leading to 50% lysis of red blood cells (HC50 = hemolytic concentration 50). This assay is routinely used for screening purposes and the lack of red cell toxicity is an important consideration for IV delivery of an AMP. ...

[4] = aqueous stock 10 mg/mL in dH2O or 0.01% acetic acid, 4 °C, more than 2 years; cited from earlier work
From the text: Peptides are typically considered inherently unstable in aqueous solutions [57].

P. aeruginosa [5] = test system: P. aeruginosa; design: method as in PMID 23917321; details: bacterial proteases, cultures of Gram-negative P. aeruginosa; cited from earlier work
Enterococcus faecalis = details: cited from earlier work
From the text: Proteolytic processing of AMPs has been cited as a concern for their development for clinical use. DGL13K was originally designed to overcome proteolytic processing of the L-enantiomer in cultures of P. aeruginosa.

[6] = cited from earlier work
[7] = Table 2, Xen41, 10^5 CFU/mL in Mueller-Hinton Broth, median MIC of 1–3 independent experiments
[8] = Table 2, Xen36, 10^5 CFU/mL in Todd-Hewitt Broth, median MIC of 1–3 independent experiments
[9] = Table 3, Xen41, Mueller-Hinton Broth, median MIC of 2–4 independent experiments, values outside tested range set at 1000 µg/mL
[10] = Table 3, Xen36, Todd-Hewitt Broth, median MIC of 2–4 independent experiments, values outside tested range set at 1000 µg/mL

Compound: CC[C@H](C)[C@@H](NC(=O)[C@@H](CCCCN)NC(=O)CN)C(=O)N[C@@H](C(=O)N[C@H](CCCCN)C(=O)N[C@H](CC(C)C)C(=O)N[C@H](CCCCN)C(=O)N[C@H](C)C(=O)N[C@H](CO)C(=O)N[C@H](CC(C)C)C(=O)N[C@H](CCCCN)C(=O)N[C@H](CC(C)C)C(=O)N[C@H](CC(C)C)C(N)=O)[C@@H](C)CC [D-allo-Ile GL13K] (H-G[dK][d(aIle)][d(aIle)][dK][dL][dK][dA][dS][dL][dK][dL][dL]-NH2; N-terminus assumed)
- MIC P. aeruginosa [1, 7]: 5.2 µg/mL
- MIC S. aureus [2, 8]: 2.6 µg/mL

Compound: CC[C@@H](C)[C@@H](NC(=O)[C@@H](Cc1c[nH]c2ccccc12)NC(=O)[C@@H](CCCCN)NC(=O)[C@@H](CCCCN)NC(=O)CN)C(=O)N[C@H](CCCCN)C(=O)N[C@H](CCCCN)C(=O)N[C@H](C)C(=O)N[C@H](CO)C(=O)N[C@H](CCCCN)C(=O)N[C@H](Cc1c[nH]c2ccccc12)C(=O)N[C@H](CC(C)C)C(=O)O [DGL12W] (H-G[dK][dK][dW][dI][dK][dK][dA][dS][dK][dW][dL]-OH; N-terminus assumed)
- MIC P. aeruginosa [1, 9]: 13 µg/mL
- Antibacterial activity against S. aureus compared with unmodified peptide (in words) [2]: lost its activity

Compound: CC[C@@H](C)[C@@H](NC(=O)[C@@H](CCCCN)NC(=O)CN)C(=O)N[C@@H](C(=O)N[C@H](CCCCN)C(=O)N[C@H](CC(C)C)C(=O)N[C@H](CCCCN)C(=O)N[C@H](C)C(=O)N[C@H](CO)C(=O)N[C@H](CC(C)C)C(=O)N[C@H](CCCCN)C(=O)N[C@H](CC(C)C)C(=O)N[C@H](CC(C)C)C(N)=O)[C@H](C)CC [DGL13K] (H-G[dK][dI][dI][dK][dL][dK][dA][dS][dL][dK][dL][dL]-NH2; N-terminus assumed)
- MIC P. aeruginosa [1, 7]: 7.8 µg/mL
- MIC P. aeruginosa [1, 9]: 5.2 µg/mL
- MIC S. aureus [2, 8]: 2.6 µg/mL
- MIC S. aureus [2, 10]: 1.3 µg/mL
- Loss of activity after heating of solution (P. aeruginosa [3]): no loss of activity
- HC50 (peptide concentration leading to 50% lysis of red blood cells) (human red blood cells): 500 to 1000 µg/mL
- Loss of antibacterial activity of aqueous solution after storage [4]: did not lose antibacterial activity
- Proteolytic degradation in cultures of P. aeruginosa (P. aeruginosa [5]): not degraded
- Proteolytic degradation in cultures of Enterococcus faecalis (Enterococcus faecalis): resists proteolytic degradation
- stability of aqueous solution (no loss of antibacterial activity) [6]: > 2 years

Compound: CC[C@@H](C)[C@@H](NC(=O)[C@@H](CCCNC(=N)N)NC(=O)CN)C(=O)N[C@@H](C(=O)N[C@H](CCCNC(=N)N)C(=O)N[C@H](CC(C)C)C(=O)N[C@H](CCCNC(=N)N)C(=O)N[C@H](C)C(=O)N[C@H](CO)C(=O)N[C@H](CC(C)C)C(=O)N[C@H](CCCNC(=N)N)C(=O)N[C@H](CC(C)C)C(=O)N[C@H](CC(C)C)C(N)=O)[C@H](C)CC [DGL13R] (H-G[dR][dI][dI][dR][dL][dR][dA][dS][dL][dR][dL][dL]-NH2; N-terminus assumed)
- Antibacterial activity against S. aureus compared with unmodified peptide (in words) [2]: not different from the parent peptide
- MIC S. aureus [2, 10]: 2.6 µg/mL

Compound: CC[C@@H](C)[C@H](NC(=O)[C@H](CCCCN)NC(=O)CN)C(=O)N[C@H](C(=O)N[C@@H](CCCCN)C(=O)N[C@@H](CC(C)C)C(=O)N[C@@H](CCCCN)C(=O)N[C@@H](C)C(=O)N[C@@H](CO)C(=O)N[C@@H](CC(C)C)C(=O)N[C@@H](CCCCN)C(=O)N[C@@H](CC(C)C)C(=O)N[C@@H](CC(C)C)C(N)=O)[C@H](C)CC [L-allo-Ile GL13K] (H-GK[aIle][aIle]KLKASLKLL-NH2; N-terminus assumed)
- MIC P. aeruginosa [1, 7]: 10.4 µg/mL
- MIC S. aureus [2, 8]: 83.3 µg/mL

Compound: GKIIKLKASLKLL-NH2 [LGL13K]
- MIC P. aeruginosa [1, 7]: 10.4 µg/mL
- MIC S. aureus [2, 8]: 83.3 µg/mL
- HC50 (peptide concentration leading to 50% lysis of red blood cells) (human red blood cells): 500 to 1000 µg/mL
- Proteolytic degradation in cultures of P. aeruginosa (P. aeruginosa [5]): susceptible to bacterial proteases

Compound: GKIIKLKASLKLL-NH2 [PEG-LGL13K, N-terminally PEGylated version of LGL13K]
- Fold increase in MIC for P. aeruginosa versus unmodified parent peptide ([1]; compared with DGL13K (or LGL13K for PEG-LGL13K), Figure 4 / Table 3): three-fold
- Fold increase in MIC for S. aureus versus unmodified parent peptide ([2]; compared with DGL13K (or LGL13K for PEG-LGL13K), Figure 4): two
